Results published in ChEMBL document CHEMBL2074539, “ATP-dependent transport of bilirubin glucuronides by the multidrug resistance protein MRP1 and its hepatocyte canalicular isoform MRP2” (Biochem J, 1997).

How the values were obtained:
[1] = target: T1, Multidrug resistance-associated protein 1 (Homo sapiens, UniProt P33527); experiment: TP_TRANSPORTER: uptake in membrane vesicle from MRP1-expressing HeLa cells; format: functional, cell membranes
[2] = target: T1, Multidrug resistance-associated protein 1; experiment: TP_TRANSPORTER: inhibition of LTC4 uptake (LTC4: 0.05 uM) in membrane vesicle from MRP1-expressing HeLa cells; format: functional, cell membranes
[3] = target: T2, ATP-binding cassette sub-family C member 2 (Rattus norvegicus, UniProt Q63120); experiment: TP_TRANSPORTER: uptake in bile canalicular membranes from Wistar/TR- rat; format: functional, cell membranes, Bile canalicular membrane
T2 sequence (Q63120 whole entry): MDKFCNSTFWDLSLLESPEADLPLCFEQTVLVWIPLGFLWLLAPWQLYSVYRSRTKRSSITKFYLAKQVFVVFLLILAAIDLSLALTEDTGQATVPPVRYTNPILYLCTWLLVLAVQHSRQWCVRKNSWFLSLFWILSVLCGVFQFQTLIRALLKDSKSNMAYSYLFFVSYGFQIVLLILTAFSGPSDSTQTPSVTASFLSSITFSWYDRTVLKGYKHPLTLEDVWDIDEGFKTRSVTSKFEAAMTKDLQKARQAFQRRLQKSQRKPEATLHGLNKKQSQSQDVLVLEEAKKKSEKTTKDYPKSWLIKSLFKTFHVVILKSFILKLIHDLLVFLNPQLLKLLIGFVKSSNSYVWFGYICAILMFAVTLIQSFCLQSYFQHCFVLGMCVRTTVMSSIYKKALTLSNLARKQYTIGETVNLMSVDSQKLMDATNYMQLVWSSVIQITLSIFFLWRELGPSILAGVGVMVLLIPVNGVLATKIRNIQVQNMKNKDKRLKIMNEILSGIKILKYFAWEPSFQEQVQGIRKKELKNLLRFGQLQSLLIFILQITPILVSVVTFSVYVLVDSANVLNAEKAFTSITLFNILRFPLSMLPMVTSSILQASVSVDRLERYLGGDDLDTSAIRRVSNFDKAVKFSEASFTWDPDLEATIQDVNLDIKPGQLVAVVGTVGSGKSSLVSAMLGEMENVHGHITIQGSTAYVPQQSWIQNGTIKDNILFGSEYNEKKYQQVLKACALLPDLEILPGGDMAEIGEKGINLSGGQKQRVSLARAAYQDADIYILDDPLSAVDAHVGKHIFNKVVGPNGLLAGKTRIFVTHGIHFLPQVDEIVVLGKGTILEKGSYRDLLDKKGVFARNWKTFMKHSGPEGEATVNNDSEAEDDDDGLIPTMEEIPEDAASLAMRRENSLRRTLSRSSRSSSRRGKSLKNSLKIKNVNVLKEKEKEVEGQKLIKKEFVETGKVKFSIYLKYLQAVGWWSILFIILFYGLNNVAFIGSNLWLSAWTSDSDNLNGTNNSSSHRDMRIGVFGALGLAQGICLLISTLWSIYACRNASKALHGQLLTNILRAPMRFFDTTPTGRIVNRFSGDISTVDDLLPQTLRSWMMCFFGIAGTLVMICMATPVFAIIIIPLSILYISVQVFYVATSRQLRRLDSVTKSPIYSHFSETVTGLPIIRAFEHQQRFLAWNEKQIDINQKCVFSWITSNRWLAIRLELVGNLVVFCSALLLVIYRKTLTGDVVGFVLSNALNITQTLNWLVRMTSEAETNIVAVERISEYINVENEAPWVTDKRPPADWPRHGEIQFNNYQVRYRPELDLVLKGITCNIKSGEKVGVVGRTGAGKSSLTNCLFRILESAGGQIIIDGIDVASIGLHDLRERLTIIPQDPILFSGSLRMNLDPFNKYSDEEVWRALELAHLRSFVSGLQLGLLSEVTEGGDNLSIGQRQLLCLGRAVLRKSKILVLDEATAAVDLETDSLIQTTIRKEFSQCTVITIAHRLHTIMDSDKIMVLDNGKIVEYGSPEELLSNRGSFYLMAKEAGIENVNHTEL

[4] = target: T2, ATP-binding cassette sub-family C member 2; experiment: TP_TRANSPORTER: inhibition of LTC4 uptake (LTC4: 0.05 uM) in bile canalicular membranes from Wistar rat; format: functional, cell membranes, Bile canalicular membrane
[5] = target: ATP-binding cassette sub-family C member 2 (Homo sapiens, UniProt Q92887); experiment: TP_TRANSPORTER: inhibition of LTC4 uptake (LTC4: 0.05 uM) in HepG2 cells; format: functional, cell-based
Chain of ATP-binding cassette sub-family C member 2 (Homo sapiens, UniProt Q92887) (Q92887 whole entry): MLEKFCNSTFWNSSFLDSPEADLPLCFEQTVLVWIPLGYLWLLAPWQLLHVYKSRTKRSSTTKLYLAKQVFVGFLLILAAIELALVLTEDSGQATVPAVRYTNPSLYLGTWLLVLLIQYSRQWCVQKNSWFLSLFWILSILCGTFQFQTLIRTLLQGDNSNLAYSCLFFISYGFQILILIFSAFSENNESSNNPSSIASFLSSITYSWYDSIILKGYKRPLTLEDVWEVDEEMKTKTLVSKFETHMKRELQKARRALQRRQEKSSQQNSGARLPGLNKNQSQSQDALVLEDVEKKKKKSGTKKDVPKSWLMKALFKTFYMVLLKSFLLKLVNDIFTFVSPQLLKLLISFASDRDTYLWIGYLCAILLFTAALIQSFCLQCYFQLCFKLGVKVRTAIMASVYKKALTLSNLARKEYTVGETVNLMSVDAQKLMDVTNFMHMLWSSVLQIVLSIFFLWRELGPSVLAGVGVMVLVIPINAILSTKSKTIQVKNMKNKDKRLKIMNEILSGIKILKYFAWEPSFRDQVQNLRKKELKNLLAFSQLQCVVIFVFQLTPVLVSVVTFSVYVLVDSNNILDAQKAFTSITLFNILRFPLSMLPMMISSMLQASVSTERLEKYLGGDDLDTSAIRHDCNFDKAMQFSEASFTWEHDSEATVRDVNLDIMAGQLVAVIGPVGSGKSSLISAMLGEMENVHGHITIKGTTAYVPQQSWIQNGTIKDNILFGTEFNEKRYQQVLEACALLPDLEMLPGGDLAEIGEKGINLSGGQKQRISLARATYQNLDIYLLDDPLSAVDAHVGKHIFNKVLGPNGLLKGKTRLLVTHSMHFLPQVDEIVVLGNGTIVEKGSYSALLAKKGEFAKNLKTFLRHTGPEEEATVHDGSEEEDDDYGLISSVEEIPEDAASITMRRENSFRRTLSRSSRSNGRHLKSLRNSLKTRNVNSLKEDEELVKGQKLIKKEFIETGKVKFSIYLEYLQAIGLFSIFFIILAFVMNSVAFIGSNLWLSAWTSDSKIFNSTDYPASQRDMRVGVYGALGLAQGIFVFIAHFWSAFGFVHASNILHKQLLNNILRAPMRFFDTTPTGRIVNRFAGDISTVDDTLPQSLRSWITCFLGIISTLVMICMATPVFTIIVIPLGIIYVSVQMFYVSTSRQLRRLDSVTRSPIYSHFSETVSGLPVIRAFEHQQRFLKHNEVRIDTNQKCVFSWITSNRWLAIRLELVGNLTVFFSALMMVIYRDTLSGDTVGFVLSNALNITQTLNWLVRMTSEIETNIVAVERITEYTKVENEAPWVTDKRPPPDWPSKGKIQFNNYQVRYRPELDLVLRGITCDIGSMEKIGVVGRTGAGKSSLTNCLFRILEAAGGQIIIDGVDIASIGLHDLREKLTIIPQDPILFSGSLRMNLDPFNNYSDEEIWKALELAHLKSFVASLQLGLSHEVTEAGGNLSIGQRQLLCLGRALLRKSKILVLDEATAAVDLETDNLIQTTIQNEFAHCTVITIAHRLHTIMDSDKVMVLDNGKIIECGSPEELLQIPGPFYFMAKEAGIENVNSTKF

T1 sequence (P33527 whole entry): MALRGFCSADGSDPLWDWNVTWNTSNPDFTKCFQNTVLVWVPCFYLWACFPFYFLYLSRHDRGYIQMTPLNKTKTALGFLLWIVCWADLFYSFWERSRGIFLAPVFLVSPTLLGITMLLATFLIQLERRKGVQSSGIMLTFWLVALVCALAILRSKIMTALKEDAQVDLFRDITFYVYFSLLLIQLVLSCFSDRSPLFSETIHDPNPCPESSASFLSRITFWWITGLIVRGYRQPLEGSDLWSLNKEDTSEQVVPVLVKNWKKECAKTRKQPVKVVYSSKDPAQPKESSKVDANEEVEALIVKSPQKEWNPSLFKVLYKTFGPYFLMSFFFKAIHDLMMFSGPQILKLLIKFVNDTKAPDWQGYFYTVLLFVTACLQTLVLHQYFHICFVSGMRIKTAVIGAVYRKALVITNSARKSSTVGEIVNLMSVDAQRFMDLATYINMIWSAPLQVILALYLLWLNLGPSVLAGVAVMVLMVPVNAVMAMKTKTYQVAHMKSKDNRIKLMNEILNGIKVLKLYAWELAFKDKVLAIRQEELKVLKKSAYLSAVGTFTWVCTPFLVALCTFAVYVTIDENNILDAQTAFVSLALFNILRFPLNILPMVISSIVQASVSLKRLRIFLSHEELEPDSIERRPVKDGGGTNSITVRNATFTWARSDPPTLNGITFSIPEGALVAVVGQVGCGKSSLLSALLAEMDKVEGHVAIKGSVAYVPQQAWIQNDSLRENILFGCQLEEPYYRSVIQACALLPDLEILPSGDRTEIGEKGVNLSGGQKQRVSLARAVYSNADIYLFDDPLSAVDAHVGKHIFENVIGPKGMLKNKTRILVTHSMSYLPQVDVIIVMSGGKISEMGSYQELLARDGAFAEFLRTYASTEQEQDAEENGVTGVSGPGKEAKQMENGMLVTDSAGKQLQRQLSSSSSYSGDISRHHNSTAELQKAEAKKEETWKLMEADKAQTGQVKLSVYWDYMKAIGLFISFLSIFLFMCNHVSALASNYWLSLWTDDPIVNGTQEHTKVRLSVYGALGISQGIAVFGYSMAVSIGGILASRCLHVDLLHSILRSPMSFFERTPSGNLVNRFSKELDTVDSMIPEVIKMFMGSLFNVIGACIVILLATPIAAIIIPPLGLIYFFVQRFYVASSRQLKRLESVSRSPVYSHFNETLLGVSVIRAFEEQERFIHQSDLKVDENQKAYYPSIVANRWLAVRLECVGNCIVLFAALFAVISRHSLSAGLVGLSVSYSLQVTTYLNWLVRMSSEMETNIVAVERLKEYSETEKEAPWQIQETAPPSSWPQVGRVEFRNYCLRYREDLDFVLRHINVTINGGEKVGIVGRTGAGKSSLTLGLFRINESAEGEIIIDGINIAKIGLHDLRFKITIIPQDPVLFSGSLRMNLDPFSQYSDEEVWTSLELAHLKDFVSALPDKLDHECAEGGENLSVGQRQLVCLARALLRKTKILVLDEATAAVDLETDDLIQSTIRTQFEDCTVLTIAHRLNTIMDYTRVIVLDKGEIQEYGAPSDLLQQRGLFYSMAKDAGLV

C=CC1=C(C)/C(=C/c2[nH]c(Cc3[nH]c(/C=C4\NC(=O)C(C)=C4C=C)c(C)c3CCC(=O)O[C@@H]3O[C@@H](C(=O)O)[C@H](O)[C@@H](O)[C@@H]3O)c(CCC(=O)O[C@@H]3O[C@H](C(=O)O)[C@H](O)[C@H](O)[C@@H]3O)c2C)NC1=O
Activity [1]: substrate [+]
IC50 [2]: 750 nM
Activity [3]: substrate [+]
IC50 [4]: 100 nM
IC50 [5]: 400 nM

C=CC1=C(C)/C(=C/c2[nH]c(Cc3[nH]c(/C=C4\NC(=O)C(C)=C4C=C)c(C)c3CCC(=O)O[C@@H]3OC(C(=O)O)[C@@H](O)C(O)C3O)c(CCC(=O)O)c2C)NC1=O (stereo not given in full) [BILIRUBIN MONOGLUCURONIDE]
Activity [1]: substrate [+]
IC50 [2]: 420 nM
Activity [3]: substrate [+]
IC50 [4]: 120 nM
IC50 [5]: 280 nM
